Test results taken from publication PMC9166630, “SAR Probing of KX2-391 Provided Analogues With Juxtaposed Activity Profile Against Major Oncogenic Kinases” (Frontiers in Oncology, 2022).

Assays:
TXK = test: PamChip tyrosine kinase microarray, TXK; format: biochemical, human; settings: 4e 0.1 µM, HL60 lysate
Description: (§1) The changes in kinase activities induced by treatment with 4e were monitored within the HL60 cell lines using PamGene’s (Hertogenbosch, Netherlands) PamChip® peptide microarray profiler, which quantifies the activities of 144 tyrosine kinases (YK) ([29], [30]) (Figure 7). Results are provided as a log fold change (LFC) heatmap and Mean Kinase Statistic. From the LFC it is apparent that compound 4e, at a concentration of 0.1 µM, induced sizable changes to the activity of several kinases within the cell signaling YK profile (Figure 7A).
(§2) An Upstream Kinase tool was used to generate a putative list of kinases responsible for phosphorylating the phospho-sites on the PamChip (Figure 7B) ([31]). It is an interpretation and is highly dependent on the contents of the underlying phosphorylation databases. A Kinase Score was used for ranking kinases based on their significance and specificity in terms of the set of peptides used for the corresponding kinase. Kinase Statistics indicates the overall change of the peptide set that represents the kinase. Kinase statistics value <0 indicates lower kinase activity in the compound spiked lysate and vice versa ([32], [33]). Table 5 lists the 20 most changed kinases within treated HL60 cell lysates by 0.1 μM 4e, ranked according to their Kinase Score.
(§3) The compound 4e was spiked into HL60 cell lysate at different concentrations (0.001, 0.01, 0.1, 1, 10 and 50 μM). In addition, DMSO was also spiked in HL60 lysate at low concentration (2% v/v) as control. Samples were profiled on PamGene’s Tyrosine Kinase (PTK) arrays in technical replicates, covering a total of 196 phosphorylation sites. Frozen HL60 cultured cell pellet was sent to PamGene. At PamGene, cells were lysed using a lysis buffer and proteases inhibitors cocktail. Protein concentration was measured using standard Bradford assay as per PamGene SOPs. These lysates were further used for generating the PTK activity profiles. For spiking, 4e was received as powder form and dissolved in DMSO at PamGene facility followed by storing at -20°C in small aliquots. PamGene used its in-house bioinformatics toolbox in combination with other methods to generate hypotheses of signaling pathways.

Srm = target: T1, Srm (Homo sapiens, UniProt Q9H3Y6); test: PamChip tyrosine kinase microarray, Srm; format: biochemical; settings: 4e 0.1 µM, HL60 lysate
T1 construct: endogenous in cells; host or cells: HL60 lysate
T1 sequence (Q9H3Y6 whole entry): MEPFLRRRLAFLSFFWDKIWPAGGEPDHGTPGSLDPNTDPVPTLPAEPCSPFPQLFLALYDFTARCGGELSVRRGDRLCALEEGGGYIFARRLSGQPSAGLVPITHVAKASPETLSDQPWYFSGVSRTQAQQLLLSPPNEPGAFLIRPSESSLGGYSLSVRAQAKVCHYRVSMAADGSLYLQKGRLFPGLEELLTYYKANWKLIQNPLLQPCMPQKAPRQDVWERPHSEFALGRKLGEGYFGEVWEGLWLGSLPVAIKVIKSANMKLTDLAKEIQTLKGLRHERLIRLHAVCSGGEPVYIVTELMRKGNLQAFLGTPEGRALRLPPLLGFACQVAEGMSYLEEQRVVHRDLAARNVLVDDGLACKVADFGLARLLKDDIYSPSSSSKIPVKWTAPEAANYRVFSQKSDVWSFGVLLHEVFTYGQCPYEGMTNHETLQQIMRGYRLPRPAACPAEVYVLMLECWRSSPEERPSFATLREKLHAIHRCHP
Description: as §1, §2, §3

Fes = target: T2, Fes (Homo sapiens, UniProt P07332); test: PamChip tyrosine kinase microarray, Fes; format: biochemical; settings: 4e 0.1 µM, HL60 lysate
T2 construct: endogenous in cells; host or cells: HL60 lysate
T2 sequence (P07332 whole entry): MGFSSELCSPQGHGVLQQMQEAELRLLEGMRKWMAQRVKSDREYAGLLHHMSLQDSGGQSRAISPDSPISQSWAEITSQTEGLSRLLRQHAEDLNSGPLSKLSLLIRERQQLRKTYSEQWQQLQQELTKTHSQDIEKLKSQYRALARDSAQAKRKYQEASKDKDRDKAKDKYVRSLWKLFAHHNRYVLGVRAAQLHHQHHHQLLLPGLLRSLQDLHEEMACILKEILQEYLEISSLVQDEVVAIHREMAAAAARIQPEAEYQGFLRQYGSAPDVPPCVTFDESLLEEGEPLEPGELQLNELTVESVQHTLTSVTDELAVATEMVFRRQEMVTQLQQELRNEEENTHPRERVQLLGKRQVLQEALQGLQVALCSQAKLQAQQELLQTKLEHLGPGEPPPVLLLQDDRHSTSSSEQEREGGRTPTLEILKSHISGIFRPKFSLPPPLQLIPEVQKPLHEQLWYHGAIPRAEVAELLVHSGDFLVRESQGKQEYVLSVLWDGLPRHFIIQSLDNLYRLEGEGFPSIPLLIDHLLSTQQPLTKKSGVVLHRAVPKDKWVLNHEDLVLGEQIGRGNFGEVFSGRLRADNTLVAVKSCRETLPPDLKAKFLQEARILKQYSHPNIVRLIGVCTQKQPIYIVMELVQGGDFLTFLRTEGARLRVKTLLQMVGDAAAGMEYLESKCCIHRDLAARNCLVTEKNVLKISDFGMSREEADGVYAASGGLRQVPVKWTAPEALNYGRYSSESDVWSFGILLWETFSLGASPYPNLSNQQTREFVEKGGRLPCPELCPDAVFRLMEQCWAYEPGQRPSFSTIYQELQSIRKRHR
Description: as §1, §2, §3

EphA5 = target: T3, EphA5 (Homo sapiens, UniProt P54756); test: PamChip tyrosine kinase microarray, EphA5; format: biochemical; settings: 4e 0.1 µM, HL60 lysate
T3 construct: endogenous in cells; host or cells: HL60 lysate
T3 sequence (P54756 25-1037): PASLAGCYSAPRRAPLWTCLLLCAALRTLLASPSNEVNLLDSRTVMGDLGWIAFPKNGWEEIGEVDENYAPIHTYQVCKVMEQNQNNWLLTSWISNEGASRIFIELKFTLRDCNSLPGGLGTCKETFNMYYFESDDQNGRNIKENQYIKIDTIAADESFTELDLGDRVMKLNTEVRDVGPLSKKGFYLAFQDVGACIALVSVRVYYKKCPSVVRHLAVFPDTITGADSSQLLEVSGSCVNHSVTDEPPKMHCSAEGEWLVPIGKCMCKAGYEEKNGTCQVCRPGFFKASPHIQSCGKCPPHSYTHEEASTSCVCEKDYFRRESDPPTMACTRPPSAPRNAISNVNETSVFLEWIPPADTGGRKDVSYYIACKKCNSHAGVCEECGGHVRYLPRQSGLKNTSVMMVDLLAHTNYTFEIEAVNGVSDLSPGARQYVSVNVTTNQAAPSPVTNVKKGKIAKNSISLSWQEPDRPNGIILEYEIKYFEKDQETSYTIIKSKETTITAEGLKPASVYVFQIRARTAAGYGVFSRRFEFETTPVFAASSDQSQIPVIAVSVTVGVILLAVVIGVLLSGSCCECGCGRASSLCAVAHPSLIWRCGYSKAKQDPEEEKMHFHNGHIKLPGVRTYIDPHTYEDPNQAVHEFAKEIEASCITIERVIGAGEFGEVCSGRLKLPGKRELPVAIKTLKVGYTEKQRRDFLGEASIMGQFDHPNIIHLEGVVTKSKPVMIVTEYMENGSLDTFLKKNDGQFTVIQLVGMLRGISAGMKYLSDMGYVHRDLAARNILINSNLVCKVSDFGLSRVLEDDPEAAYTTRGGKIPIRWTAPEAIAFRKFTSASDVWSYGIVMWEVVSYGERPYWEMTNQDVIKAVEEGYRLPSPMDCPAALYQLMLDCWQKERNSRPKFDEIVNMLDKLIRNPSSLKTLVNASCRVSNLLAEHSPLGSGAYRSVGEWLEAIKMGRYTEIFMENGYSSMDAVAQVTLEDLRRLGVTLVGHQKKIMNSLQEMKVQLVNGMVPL
Description: as §1, §2, §3

Hck = test: PamChip tyrosine kinase microarray, Hck; format: biochemical, human; settings: 4e 0.1 µM, HL60 lysate
Description: as §1, §2
The two multiple-kinase tests (PamChip and Phosphokinase Profiler) provided strong evidence of very minor involvement of Src in the cellular activities of 4e. However, the question must be raised about the effect of the 4e on other SRC family kinase (SFK). To address this point, we must highlight that both R&D phosphokinase profiler and PamChip feature Yes, Fgr, Lyn, Lck and Src while Fyn, Hck, Blk and Frk activities are tested in the PamChip only. The signals of SFKs in the R&D Phosphokinase Profiler were too weak to detect in both untreated (control) and 4e-treated HL60 cells. In PamChip assay, most of SFK’s were not ranked in the top 20 affected kinases (Table 5). In addition, their Specificity Score were very low (Table 6) indicating their marginal importance to the cell killing activities of 4e. Fgr kinase which ranked 7th in the list (Table 5) was the only SFK member that seems to be affected by the compound, albeit with low Specificity Score (1.03).
The compound 4e was spiked into HL60 cell lysate at different concentrations (0.001, 0.01, 0.1, 1, 10 and 50 μM). In addition, DMSO was also spiked in HL60 lysate at low concentration (2% v/v) as control. Samples were profiled on PamGene’s Tyrosine Kinase (PTK) arrays in technical replicates, covering a total of 196 phosphorylation sites. Frozen HL60 cultured cell pellet was sent to PamGene. […] Protein concentration was measured using standard Bradford assay as per PamGene SOPs. […]

[1] = system: N87 (stomach) cancer cells; test: SRB cytotoxicity assay, N87; format: cell-based; settings: Homo sapiens, 72 h, maximum tested concentration 50 µM, read-out: IC50 ± SEM, N87
Description: MCF7 (breast) or N87 (stomach) cancer cells were grown in Roswell Park Memorial Institute-1640 (RPMI-1640) medium (Thermo Fisher Scientific, Inc; Waltham, MA, USA), supplemented with 10% heat inactivated fetal bovine serum (FBS), 50 units/mL of penicillin and […] of streptomycin and maintained at 37°C in a humidified atmosphere containing 5% CO2. The cells were maintained as “monolayer culture” by serial subculturing.
Cytotoxicity was determined using Sulforhodamine B (SRB) method as previously described by Skehan et al. ([66]). Exponentially growing MCF7 and N87 cells were collected using 0.25% Trypsin-EDTA and were then seeded in 96-well plates at a density of 1000-2000 cells/well in 10% FBS and penicillin/streptomycin supplemented RPMI-1640 medium. After 24 h, cells were treated with different concentrations of test compounds and incubated for 72 h at 37°C in a humidified atmosphere containing 5% CO2. Next, the cells were fixed by adding trichloroacetic acid (TCA, 10% final conc. in wells) directly to the wells and incubated for 1 h at 4°C, then cells were washed with distilled water 5 times to remove excess TCA, media, serum proteins, and metabolites, followed by air drying. After that, the fixed cells were stained with 0.4% SRB dissolved in 1% acetic acid for 10 min at room temperature, and excess stain was removed by quickly rinsing with 1% acetic acid. The residual acetic acid was removed completely by air drying the plates for 24 h, and the dye was solubilized with Tris buffer (pH= 7.4, 10 mM) for 5 min on a shaker at 1600 rpm. The optical density (OD) of each well was measured spectrophotometrically at 564 nm with an ELISA microplate reader (ChroMate-4300, FL, USA). The IC50 values (concentration of drug resulting in 50% reduction in cell survival) were calculated according to the equation for Boltzman sigmoidal concentration–response curve using the nonlinear regression fitting models (Graph Pad, Prism Version 5).

## O=C(Cc1ccc(NC(=O)c2cccc(Cl)c2)cc1)NCc1ccccc1 [Compound 4e, N-(4-(2-(benzylamino)-2-oxoethyl)phenyl)-3-chlorobenzamide]
TXK
  Mean Final Score: 1.9145
  Mean Kinase Statistic: -0.5527
  Mean Significance Score: 1.2373
  Mean Specificity Score: 0.6772
Srm
  Mean Final Score: 2.2692
  Mean Kinase Statistic: -0.5863
  Mean Significance Score: 1.1518
  Mean Specificity Score: 1.1174
Fes
  Mean Final Score: 2.3241
  Mean Kinase Statistic: -0.6958
  Mean Significance Score: 1.2140
  Mean Specificity Score: 1.1101
EphA5
  Mean Final Score: 2.9453
  Mean Kinase Statistic: -0.8931
  Mean Significance Score: 1.7474
  Mean Specificity Score: 1.1979
Hck
  Mean Final Score: 1.0872
  Mean Kinase Statistic: -0.4497
  Mean Significance Score: 0.8248
  Mean Specificity Score: 0.2624
[1]
  IC50: 5.28 ± 0.91 µM
